According to patent publication US8637237B2, “Methods, compositions, and systems for the identification of species-specific or developmental stage-specific insecticides” (The University of North Carolina at Greensboro, priority 2003, dated 2014):

What was measured:
EcRB2/USP = target: T1, EcRB2/USP (Drosophila melanogaster, UniProt P34021); assay: EcRB2 isoform with USP (VP16CfUSP), (EcRE)5-ΔMTV-LUC in CHO cells; assay type: cell-based
T1 construct: The plasmid encodes a version of EcRB2 that includes 669 amino acids, and deletes the F domain; expressed in transfected cells; host or cells: CHO
T1 sequence (P34021 1-669 isoform P34021-3): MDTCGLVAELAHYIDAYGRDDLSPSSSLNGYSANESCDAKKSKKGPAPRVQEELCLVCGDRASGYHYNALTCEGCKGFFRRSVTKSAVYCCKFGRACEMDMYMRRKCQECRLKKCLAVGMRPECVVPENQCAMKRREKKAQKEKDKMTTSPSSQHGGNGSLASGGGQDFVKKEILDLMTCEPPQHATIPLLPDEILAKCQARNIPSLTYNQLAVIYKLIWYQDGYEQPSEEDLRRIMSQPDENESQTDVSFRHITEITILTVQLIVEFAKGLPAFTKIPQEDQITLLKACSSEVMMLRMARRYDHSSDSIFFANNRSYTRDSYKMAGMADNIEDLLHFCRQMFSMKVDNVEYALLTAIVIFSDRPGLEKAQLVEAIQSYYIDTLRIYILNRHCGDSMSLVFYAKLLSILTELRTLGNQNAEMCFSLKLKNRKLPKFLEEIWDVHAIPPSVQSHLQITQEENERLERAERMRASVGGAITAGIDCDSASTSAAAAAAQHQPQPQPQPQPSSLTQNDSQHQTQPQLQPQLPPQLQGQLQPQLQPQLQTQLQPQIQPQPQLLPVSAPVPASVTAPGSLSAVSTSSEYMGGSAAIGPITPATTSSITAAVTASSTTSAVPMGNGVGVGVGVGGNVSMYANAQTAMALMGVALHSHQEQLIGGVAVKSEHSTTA
T1 sequence (O76202 192-472 partner): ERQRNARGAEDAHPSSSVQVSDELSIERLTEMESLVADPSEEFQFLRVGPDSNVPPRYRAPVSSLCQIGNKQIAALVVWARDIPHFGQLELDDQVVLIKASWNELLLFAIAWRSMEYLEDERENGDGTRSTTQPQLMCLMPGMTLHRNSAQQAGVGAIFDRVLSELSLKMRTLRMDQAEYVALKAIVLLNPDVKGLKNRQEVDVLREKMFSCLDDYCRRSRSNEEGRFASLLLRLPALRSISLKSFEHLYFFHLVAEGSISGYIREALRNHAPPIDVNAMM
Experimental: (§1) These experiments employed a mammalian cell culture system using Chinese hamster ovary cells (CHO) to evaluate the transcriptional function of Drosophila melanogaster EcR and USP using methods described previously (U.S. Patent Application Publication No: 2005/0049230; Henrich et al, 2003). Cells were seeded in 6-well polypropylene culture plates (Falcon) with 10^5 cells per well on the day prior to transfection. Transfection was subsequently performed using either calcium phosphate (Kitareewan et al., 1996, Mol. Biol. Cell, 7:1153-1196) or a GenePorter reagent (Gene Therapy Systems, Inc; San Diego, Calif.) following manufacturer's protocols. Each well received 1.25 μg of (EcRE)5-ΔMTV-CAT (five copies of the hsp27 EcRE inserted into an mouse mammary tumor virus (MTV) promoter upstream of the chloramphenicol acetyltransferase (CAT) gene) or (EcRE)5-ΔMTV-LUC (the same promoter attached to firefly luciferase), 1.25 μg of pCH111 (SV40 early promoter linked to the β-galactosidase gene) to normalize CAT activity, and 0.25 μg of each expression plasmid (EcR, FXR, RXR, USP) that was tested. The cells were incubated with plasmid DNA for seven hours and then washed with 1×PBS. Muristerone A (murA; Alexis Biochemicals) or 20-hydroxyecdysone (20E; Sigma) dissolved in ethanol to a concentration of 10 mM was diluted as necessary to the final assay concentration (FAC) in 2 ml of fresh incubation medium that was then applied to the cells. Similarly, JHIII (Sigma) was dissolved in dimethyl sulfoxide (DMSO) to a concentration of […] and diluted into the incubation medium to its final assay concentration (20, 40, 80, 160 μM). […] A corresponding volume of ethanol and DMSO were added to control cells for all experiments. For all experiments, the cells were allowed to incubate with the medium for 24 hours before collection and cell lysates were prepared by described methods (Kitareewan et al., 1996). Both β-galactosidase and CAT reporter activity were measured based on previously used methods (Kitareewan et al, 1996). Luciferase assays using luciferrin followed the specifications of the manufacturer.
(§2) Transcriptional activity, measured as ^14C-chloramphenicol counts (for measuring CAT activity) or relative luciferase activity (RLU) was quantified for each cell lysate. The counts were then normalized by adjusting for differences in β-galactosidase activity, since β-galactosidase expression is controlled by a constitutive promoter and provides an estimate of cell mass. Data were normalized as fold-induction based on differences in reporter gene activity between hormonally treated and control cells.

EcRA/USP = target: T2, EcRA/USP (Drosophila melanogaster, UniProt P34021); assay: EcRA isoform with USP (VP16CfUSP), (EcRE)5-ΔMTV-LUC in CHO cells; assay type: cell-based
T2 construct: The plasmid encodes a version of EcRA that includes 849 amino acids, and deletes the F domain; expressed in transfected cells; host or cells: CHO
T2 sequence (P34021 1-849 isoform P34021-2): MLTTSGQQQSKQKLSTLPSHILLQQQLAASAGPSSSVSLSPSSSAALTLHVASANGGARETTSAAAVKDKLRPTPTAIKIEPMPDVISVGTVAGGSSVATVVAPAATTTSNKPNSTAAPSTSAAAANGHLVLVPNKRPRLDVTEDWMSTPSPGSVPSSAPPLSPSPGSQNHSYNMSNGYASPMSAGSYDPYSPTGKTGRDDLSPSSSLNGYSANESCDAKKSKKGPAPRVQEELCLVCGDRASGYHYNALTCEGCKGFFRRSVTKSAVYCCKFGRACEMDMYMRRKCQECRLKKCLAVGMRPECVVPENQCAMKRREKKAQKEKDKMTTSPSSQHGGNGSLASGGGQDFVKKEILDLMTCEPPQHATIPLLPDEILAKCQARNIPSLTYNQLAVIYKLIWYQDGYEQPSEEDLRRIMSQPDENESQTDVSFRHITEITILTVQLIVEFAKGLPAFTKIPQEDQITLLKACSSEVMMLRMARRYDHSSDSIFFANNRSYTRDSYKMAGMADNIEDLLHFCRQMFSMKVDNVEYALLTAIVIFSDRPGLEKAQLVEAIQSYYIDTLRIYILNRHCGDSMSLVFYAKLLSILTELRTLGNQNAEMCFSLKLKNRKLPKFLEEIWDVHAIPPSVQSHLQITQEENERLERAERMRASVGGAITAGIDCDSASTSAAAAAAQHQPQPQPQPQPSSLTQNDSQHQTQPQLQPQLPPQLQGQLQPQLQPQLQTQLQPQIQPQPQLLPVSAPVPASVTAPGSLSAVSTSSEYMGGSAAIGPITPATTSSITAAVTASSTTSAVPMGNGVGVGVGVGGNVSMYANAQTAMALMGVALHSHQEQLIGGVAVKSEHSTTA
T2 sequence (O76202 192-472 partner): T1 sequence (O76202 192-472 partner)
Experimental: as §1, §2

## CC(C)(O)CC[C@@H](O)[C@](C)(O)[C@H]1CC[C@@]2(O)C3=CC(=O)[C@@H]4C[C@@H](O)[C@@H](O)C[C@]4(C)[C@H]3CC[C@]12C [20E, 20-hydroxyecdysone]
EcRB2/USP; EcRB2 + VP16CfUSP, 10 μM 20E
  transcriptional response to 20E: consistent and discernible transcriptional response
EcRB2/USP; EcRB2/USP, 10 μM 20E
  20E (inducibility): + ((+) designates a change in transcriptional level that exceeds 2.5-fold)
EcRA/USP; EcRA + VP16CfUSP, 10 μM 20E
  transcriptional response to 20E: consistent and discernible transcriptional response
EcRA/USP; EcRA/USP, 10 μM 20E
  20E (inducibility): + ((+) designates a change in transcriptional level that exceeds 2.5-fold)

## COC(=O)/C=C(\C)CC/C=C(\C)CC[C@H]1OC1(C)C [JHIII, juvenile hormone III]
EcRB2/USP; EcRB2 + VP16CfUSP, 10 μM 20E plus JHIII
  potentiation of 20E response by JHIII: potentiated significantly
EcRB2/USP; EcRB2 + VP16CfUSP, 80 μM JHIII with 0.1 μM murA
  potentiation of murA response by JHIII: potentiated
EcRB2/USP; EcRB2/USP, 0.1 μM murA + 80 μM JHIII
  MurA + JHIII (JHIII potentiation): + ((+) indicates observed potentiation that exceeds 2-fold above the levels observed with ecdysteroid alone)
EcRB2/USP; EcRB2/USP, 10 μM 20E + 80 μM JHIII
  20E + JHIII (JHIII potentiation): + ((+) indicates observed potentiation that exceeds 2-fold above the levels observed with ecdysteroid alone)
EcRA/USP; EcRA + VP16CfUSP, 80 μM JHIII with 0.1 μM murA
  potentiation of murA response by JHIII: potentiated
EcRA/USP; EcRA/USP, 0.1 μM murA + 80 μM JHIII
  MurA + JHIII (JHIII potentiation): + ((+) indicates observed potentiation that exceeds 2-fold above the levels observed with ecdysteroid alone)

## CC(C)CC[C@@H](O)[C@](C)(O)[C@H]1CC[C@@]2(O)C3=CC(=O)[C@]4(O)C[C@@H](O)[C@@H](O)C[C@]4(C)[C@H]3[C@H](O)C[C@]12C [murA, muristerone A]
EcRB2/USP; EcRB2 + VP16CfUSP, 1 μM murA
  induction by murA: 30-40 fold
EcRB2/USP; EcRB2/USP, 0.1 μM murA
  MurA (inducibility): + ((+) designates a change in transcriptional level that exceeds 2.5-fold)
EcRA/USP; EcRA + VP16CfUSP, 1 μM murA
  induction by murA: 30-40 fold
EcRA/USP; EcRA/USP, 0.1 μM murA
  MurA (inducibility): + ((+) designates a change in transcriptional level that exceeds 2.5-fold)
